From BindingDB's records for doi:10.1016/j.bmcl.2005.07.040 (Universit&#233, 2005)

Target: Sigma non-opioid intracellular receptor 1 (Cavia porcellus)
Assay: Inhibitory concentration against opioid receptor sigma 1 of guinea pig cerebral cortex using [3H](+)-pentazocine upon incubation for 150 minutes at 22 degree C

| SMILES | IC50 [nM] |
| --- | --- |
| O=c1n(CCN2CCCCC2)c(O)c2n1Cc1ccccc1C2 | 6.6 |
| c1ccc2c(c1)C[C@H]1CN(CCN3CCCCC3)CN1C2 [(S)-2-(2-Piperidin-1-yl-ethyl)-1,2,3,5,10,10a-hexahydro-imidazo[1,5-b]isoquinoline] | 77 |
| O=C1N(CCN2CCCCC2)C[C@@H]2Cc3ccccc3CN12 [(S)-2-(2-Piperidin-1-yl-ethyl)-1,5,10,10a-tetrahydro-2H-imidazo[1,5-b]isoquinolin-3-one] | 54 |
| Oc1c2n(c(=S)n1CCN1CCCCC1)Cc1ccccc1C2 [(S)-2-(2-Piperidin-1-yl-ethyl)-3-thioxo-2,3,10,10a-tetrahydro-5H-imidazo[1,5-b]isoquinolin-1-one] | 0.9 |
| O=c1n(CCN2CCCCC2)c(O)c2n1CCCC2 [(S)-2-(2-Piperidin-1-yl-ethyl)-tetrahydro-imidazo[1,5-a]pyridine-1,3-dione] | > 1000 |
